Reference: ChEMBL document CHEMBL2413063, “Neuroactive diol and acyloin metabolites from cone snail-associated bacteria” (Bioorg Med Chem Lett, 2013)
One block for each compound: values may come before it. Active and inactive are the calls of the source. The rule behind the calls is not given here.

Columns and labels:
[1] = tested on: DRG neuron; experiment: Neuronal activity in mouse DRG neurons assessed as amplification of KCl pulse-induced intracellular calcium transient at 90 uM by fluorescence microscopic analysis; format: functional, cell-based
[2] = tested on: DRG neuron; experiment: Neuronal activity in mouse DRG neurons assessed as amplification of KCl pulse-induced intracellular calcium transient at 73 uM by fluorescence microscopic analysis; format: functional, cell-based
[3] = target: Sodium-dependent dopamine transporter (Homo sapiens) (UniProt Q01959); experiment: Binding affinity to dopamine transporter (unknown origin) at 10 uM by ligand displacement assay
Sodium-dependent dopamine transporter (Homo sapiens), sequence (Q01959 whole entry): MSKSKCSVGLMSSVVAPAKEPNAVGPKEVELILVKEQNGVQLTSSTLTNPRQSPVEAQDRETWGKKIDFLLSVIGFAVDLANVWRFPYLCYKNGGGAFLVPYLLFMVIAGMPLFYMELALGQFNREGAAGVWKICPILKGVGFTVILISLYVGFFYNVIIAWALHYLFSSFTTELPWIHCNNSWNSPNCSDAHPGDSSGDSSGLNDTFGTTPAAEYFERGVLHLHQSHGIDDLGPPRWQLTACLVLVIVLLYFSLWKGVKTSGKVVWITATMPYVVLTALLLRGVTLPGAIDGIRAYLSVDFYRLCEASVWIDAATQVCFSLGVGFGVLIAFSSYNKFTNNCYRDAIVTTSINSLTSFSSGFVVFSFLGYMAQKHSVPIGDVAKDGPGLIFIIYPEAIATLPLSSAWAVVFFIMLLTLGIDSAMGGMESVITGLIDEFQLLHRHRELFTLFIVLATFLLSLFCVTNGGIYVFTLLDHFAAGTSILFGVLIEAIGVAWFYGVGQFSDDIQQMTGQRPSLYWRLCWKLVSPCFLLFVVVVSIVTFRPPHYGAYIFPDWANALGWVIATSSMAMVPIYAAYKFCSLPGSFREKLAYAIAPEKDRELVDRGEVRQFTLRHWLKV

[4] = target: Sodium-dependent serotonin transporter (Homo sapiens) (UniProt P31645); experiment: Binding affinity to serotonin transporter (unknown origin) at 10 uM by ligand displacement assay
Sodium-dependent serotonin transporter (Homo sapiens), sequence (P31645 whole entry, looked up): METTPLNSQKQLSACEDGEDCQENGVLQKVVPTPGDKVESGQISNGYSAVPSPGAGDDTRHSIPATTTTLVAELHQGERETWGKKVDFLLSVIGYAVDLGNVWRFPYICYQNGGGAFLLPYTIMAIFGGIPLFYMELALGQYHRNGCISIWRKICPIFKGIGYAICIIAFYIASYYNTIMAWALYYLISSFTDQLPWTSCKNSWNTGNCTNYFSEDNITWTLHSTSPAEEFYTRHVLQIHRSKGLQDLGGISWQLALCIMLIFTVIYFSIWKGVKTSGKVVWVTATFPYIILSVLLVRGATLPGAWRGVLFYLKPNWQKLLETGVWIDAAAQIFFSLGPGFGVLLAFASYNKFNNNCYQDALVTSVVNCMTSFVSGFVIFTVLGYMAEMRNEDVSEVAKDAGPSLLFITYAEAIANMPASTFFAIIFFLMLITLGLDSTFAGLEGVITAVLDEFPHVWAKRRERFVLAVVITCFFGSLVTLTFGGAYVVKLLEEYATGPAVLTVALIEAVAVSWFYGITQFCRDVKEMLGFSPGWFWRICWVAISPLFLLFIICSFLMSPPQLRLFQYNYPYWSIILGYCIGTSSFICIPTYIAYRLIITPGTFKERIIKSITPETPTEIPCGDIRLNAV

[5] = target: Sodium-dependent noradrenaline transporter (Homo sapiens, UniProt P23975); experiment: Binding affinity to human norepinephrine transporter by ligand displacement assay
Sodium-dependent noradrenaline transporter, sequence (P23975 whole entry): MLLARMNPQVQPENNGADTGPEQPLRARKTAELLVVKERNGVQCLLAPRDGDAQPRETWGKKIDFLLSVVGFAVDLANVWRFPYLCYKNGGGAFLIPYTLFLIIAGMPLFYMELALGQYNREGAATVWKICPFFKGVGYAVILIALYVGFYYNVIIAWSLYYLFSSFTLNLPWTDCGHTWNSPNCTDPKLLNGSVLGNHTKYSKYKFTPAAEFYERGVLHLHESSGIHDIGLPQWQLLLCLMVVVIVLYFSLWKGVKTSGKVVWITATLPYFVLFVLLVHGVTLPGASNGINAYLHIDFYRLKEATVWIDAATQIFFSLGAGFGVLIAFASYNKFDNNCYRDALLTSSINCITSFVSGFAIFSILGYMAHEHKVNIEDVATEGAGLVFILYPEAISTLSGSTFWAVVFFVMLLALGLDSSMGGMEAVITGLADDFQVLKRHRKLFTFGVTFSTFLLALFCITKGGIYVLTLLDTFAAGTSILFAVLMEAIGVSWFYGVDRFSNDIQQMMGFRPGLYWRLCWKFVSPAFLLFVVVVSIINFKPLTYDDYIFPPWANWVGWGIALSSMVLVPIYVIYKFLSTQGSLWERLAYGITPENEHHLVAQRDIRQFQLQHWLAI

Compound: CC(C)CC(O)C(=O)Cc1ccc(O)cc1 (stereo unspecified)
Activity [1]: inactive

Compound: CC(C)CC(=O)C(O)Cc1ccc(O)cc1 (stereo unspecified)
Activity [1]: inactive

Compound: O=C(Cc1ccc(O)cc1)C(O)Cc1ccc(O)cc1 (stereo unspecified)
Activity [2]: Active

inhibition [3]: inactive | inhibition [4]: inactive | Ki [5]: 0.867 µM
Compound: O=C(Cc1c[nH]c2ccccc12)C(O)Cc1ccc(O)cc1 (stereo unspecified)
